Assay results: ChEMBL document CHEMBL1201862, “PubChem BioAssay data set” (2004)
Activity calls are given as the source filed them.

Tests used:
[1] = system: Streptococcus sp. 'group A'; assay: Streptococcus pyogenes SK(-)GAS viability under kanamycin – luminescence, BacTiterGlo, confirmation, counter-screen for streptokinase expression inhibitor project, dose response (AID 1900); type: functional, organism-based
BJ [2] = assay: BJ-TERT fibroblast viability loss – cell-based, RAS-independent, luminescence, dose response (AID 1933); type: functional; conditions: Homo sapiens
Beta-galactosidase = Beta-galactosidase (Escherichia coli, UniProt Q8VNN2); assay: PubChem AID 485352; type: functional
BJ [3] = assay: cells; type: functional, cell-based; conditions: Homo sapiens
[4] = Trypanosoma cruzi growth suppression in host cells – NIH3T3 host cells, beta-gal luminescence, confirmation (AID 2044); type: functional, cell-based;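 note: intracellular parasites grown in NIH/3T3 mouse fibroblasts as host cells; luminescent beta-galactosidase reporter signal from transgenic T. cruzi replicating inside host cells; inhibitors lower the luminescence signal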
[5] = biological target: T1, Type-1 angiotensin II receptor (Homo sapiens, UniProt P30556); assay: antagonism of angiotensin II type 1 receptor – cell-based, uHTS hits, selectivity assay for APJ receptor antagonist project, dose response (AID 463214); type: functional;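 note: antagonist potency against angiotensin II stimulated AT1 response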
T1 sequence (P30556 whole entry): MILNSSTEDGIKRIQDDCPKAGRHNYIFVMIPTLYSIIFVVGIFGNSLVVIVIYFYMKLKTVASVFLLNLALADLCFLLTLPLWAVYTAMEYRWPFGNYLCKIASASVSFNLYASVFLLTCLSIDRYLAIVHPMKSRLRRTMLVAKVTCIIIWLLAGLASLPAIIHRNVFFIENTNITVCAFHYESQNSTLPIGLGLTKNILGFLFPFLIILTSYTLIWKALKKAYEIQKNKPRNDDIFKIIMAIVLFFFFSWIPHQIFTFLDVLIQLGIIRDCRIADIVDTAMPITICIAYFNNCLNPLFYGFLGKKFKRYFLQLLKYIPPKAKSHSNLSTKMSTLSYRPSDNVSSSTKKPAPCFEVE

[6] = NIH3T3 cell viability loss – ATP luminescence, mouse fibroblasts, counter-screen, dose response (AID 2010); type: functional, cell-based;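 note: cells exposed to compound for about 90 hours before reading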
BJ [7] = assay: BJ-TERT-LT-ST fibroblast viability loss – cell-based, RAS-independent, luminescence, dose response (AID 1935); type: functional; conditions: Homo sapiens;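 note: BJ fibroblasts immortalized with TERT plus LT and ST oncogenes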
[8] = DRD fibroblast viability loss – cell-based, non-viral oncogenic, luminescence, dose response (AID 1934); type: functional; conditions: Homo sapiens
Streptococcus = assay: GAS UMAA2166 growth inhibition – luminescence, BacTiterGlo, counter-screen for streptokinase expression inhibitor project, dose response (AID 1915); type: functional, organism-based;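 note: potency for reduction of bacterial viability or growth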
Nonstructural protein 1 = Nonstructural protein 1 (Influenza A virus, UniProt Q194T2); type: functional, Influenza A virus (A/California/07/2009(H1N1))
[9] = biological target: T2, Replicative DNA helicase DnaB (Mycobacterium tuberculosis, UniProt P9WMR3); assay: DnaB intein splicing inhibitors, dose response, biochemical, cell-free fluorescence (AID 449749); type: functional
T2 sequence (P9WMR3 whole entry): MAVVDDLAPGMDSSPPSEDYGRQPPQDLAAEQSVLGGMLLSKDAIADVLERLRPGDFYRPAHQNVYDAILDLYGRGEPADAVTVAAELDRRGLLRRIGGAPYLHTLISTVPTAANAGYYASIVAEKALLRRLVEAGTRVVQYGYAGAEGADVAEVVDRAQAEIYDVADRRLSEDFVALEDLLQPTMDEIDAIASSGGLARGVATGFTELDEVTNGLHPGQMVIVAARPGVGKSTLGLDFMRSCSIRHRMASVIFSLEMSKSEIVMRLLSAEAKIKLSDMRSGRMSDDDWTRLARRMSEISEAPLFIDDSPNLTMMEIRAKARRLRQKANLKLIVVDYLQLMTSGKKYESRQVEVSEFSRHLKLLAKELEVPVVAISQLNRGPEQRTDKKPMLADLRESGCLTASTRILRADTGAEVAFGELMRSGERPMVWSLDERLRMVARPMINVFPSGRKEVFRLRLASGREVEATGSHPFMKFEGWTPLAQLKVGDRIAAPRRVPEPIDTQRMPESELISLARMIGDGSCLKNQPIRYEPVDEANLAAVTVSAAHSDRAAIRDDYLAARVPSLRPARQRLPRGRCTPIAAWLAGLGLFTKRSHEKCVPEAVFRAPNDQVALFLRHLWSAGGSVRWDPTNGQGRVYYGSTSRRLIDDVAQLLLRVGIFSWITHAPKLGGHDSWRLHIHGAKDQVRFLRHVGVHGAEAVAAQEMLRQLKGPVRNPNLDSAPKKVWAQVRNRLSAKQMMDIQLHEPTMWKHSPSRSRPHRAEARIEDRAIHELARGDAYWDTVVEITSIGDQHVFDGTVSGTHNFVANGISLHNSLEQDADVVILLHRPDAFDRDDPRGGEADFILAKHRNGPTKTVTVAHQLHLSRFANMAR

Protein RecA = biological target: T3, Protein RecA (Mycobacterium tuberculosis, UniProt P9WHJ3); assay: Fluorescence Cell-Free Homogeneous Dose Retest to Identify Inhibitors of RecA-Intein Splicing Activity. [Related pubchem assays (depositor defined):AID2097, AID2223, AID489010, AID492950]; type: functional
T3 sequence (P9WHJ3 whole entry): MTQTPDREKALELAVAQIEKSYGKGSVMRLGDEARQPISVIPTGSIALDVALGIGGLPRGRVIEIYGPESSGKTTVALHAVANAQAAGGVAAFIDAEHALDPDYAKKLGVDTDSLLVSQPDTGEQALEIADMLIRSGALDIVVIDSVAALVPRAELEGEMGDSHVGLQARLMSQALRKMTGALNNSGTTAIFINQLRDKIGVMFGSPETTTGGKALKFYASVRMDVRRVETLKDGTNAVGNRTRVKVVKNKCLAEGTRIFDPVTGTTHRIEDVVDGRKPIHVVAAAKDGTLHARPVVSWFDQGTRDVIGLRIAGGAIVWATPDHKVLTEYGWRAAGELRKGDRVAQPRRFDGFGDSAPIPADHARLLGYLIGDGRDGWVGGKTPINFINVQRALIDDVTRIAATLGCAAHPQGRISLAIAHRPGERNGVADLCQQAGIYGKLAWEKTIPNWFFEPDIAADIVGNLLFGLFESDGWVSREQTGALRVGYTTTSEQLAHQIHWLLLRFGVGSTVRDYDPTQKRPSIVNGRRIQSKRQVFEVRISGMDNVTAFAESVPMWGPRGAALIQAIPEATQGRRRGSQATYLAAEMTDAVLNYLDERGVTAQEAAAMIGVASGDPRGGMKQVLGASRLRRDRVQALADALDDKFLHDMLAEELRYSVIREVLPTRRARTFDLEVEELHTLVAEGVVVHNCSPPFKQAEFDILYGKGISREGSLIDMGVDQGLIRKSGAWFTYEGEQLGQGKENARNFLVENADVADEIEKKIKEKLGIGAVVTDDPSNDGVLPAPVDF

INS1 = assay: INS-1E survival protection against cytokine death – cell-based, luminescence, retest, dose response (AID 449756); type: functional; conditions: Rattus norvegicus, INS1;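 note: cell death triggered by IL-1 beta plus TNF-alpha plus IFN-gamma mixture; protective hits raise ATP signal compared with cytokine alone wells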
[10] = IC50 of Artemis nuclease activity blockers – biochemical, fluorescence intensity, dose response (AID 720701); type: functional;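 note: Artemis endonuclease enzyme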
[11] = biological target: Disintegrin and metalloproteinase domain-containing protein 17 (Homo sapiens, UniProt P78536); assay: exosite inhibitors of ADAM17, dose response, biochemical (AID 743260)
[12] = inhibition of ADAM10 peptide cleavage – biochemical, FRET peptide substrate, recombinant human ADAM10, selectivity assay for ADAM17 exosite inhibitor project, dose response (AID 743259);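 note: ADAM10 enzyme cleaving a FRET peptide substrate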
Paired box protein Pax-8 = Paired box protein Pax-8 (Homo sapiens, UniProt Q06710); assay: PAX8 transcriptional activity inhibition in RMG-I – RMG-I cells, luciferase, cherry-pick, dose response (AID 687027); type: functional, cell-based;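 note: luciferase reporter driven by Pax8 target thyroperoxidase promoter measured by SteadyGlo luminescence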
[13] = general cell-killing toxicity readout – plate reader, dry powder samples, cytotoxicity control for PAX8 inhibitor project, dose response (AID 743021); type: functional, cell-based

Chain of Disintegrin and metalloproteinase domain-containing protein 17 (P78536 whole entry, the tested form may be a part): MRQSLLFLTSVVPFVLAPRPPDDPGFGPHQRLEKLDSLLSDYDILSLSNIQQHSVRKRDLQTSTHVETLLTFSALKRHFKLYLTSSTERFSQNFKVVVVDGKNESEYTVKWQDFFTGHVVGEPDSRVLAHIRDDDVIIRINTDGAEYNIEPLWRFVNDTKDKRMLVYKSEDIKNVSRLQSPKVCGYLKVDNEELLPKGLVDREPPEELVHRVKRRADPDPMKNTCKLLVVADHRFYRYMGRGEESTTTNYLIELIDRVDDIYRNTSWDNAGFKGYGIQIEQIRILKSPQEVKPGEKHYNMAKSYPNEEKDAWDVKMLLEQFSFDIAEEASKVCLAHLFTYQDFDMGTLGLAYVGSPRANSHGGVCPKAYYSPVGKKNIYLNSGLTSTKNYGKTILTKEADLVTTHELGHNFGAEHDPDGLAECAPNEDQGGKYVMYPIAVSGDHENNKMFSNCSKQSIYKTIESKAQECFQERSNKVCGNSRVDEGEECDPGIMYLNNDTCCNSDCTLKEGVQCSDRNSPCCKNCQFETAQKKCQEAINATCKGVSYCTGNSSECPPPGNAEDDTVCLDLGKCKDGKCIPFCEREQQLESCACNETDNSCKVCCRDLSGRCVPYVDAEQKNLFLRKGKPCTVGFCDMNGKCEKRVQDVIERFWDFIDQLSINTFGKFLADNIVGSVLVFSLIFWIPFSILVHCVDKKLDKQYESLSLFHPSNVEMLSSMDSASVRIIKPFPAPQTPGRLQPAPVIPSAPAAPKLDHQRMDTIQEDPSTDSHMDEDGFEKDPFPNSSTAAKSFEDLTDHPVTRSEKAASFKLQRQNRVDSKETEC
Chain of Beta-galactosidase (Q8VNN2 whole entry): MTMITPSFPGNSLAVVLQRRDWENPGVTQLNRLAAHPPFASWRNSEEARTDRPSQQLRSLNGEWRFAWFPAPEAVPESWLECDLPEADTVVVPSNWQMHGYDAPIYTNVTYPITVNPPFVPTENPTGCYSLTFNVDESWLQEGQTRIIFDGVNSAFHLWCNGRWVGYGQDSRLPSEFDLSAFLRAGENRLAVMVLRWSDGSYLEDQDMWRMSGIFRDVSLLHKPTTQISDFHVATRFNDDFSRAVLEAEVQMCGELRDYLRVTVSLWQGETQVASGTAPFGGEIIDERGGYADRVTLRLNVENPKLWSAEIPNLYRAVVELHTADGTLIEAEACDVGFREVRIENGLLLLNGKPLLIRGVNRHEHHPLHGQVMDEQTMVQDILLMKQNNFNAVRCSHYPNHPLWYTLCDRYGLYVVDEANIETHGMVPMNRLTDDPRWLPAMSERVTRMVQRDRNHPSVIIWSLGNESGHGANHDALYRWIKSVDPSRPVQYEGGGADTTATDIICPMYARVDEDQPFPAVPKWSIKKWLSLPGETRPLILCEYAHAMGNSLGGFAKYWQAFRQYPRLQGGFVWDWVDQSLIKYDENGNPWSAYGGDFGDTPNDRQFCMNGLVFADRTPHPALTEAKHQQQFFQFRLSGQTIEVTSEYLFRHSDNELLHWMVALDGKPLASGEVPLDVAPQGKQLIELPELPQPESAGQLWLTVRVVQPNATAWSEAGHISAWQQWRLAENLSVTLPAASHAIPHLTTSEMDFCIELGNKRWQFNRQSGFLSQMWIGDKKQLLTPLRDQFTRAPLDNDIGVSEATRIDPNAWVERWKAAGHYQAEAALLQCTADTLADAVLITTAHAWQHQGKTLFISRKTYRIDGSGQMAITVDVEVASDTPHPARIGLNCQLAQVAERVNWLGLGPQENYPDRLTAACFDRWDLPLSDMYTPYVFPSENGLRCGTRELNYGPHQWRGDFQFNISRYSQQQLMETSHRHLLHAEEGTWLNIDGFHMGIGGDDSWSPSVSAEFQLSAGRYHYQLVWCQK
Chain of Paired box protein Pax-8 (Q06710 whole entry): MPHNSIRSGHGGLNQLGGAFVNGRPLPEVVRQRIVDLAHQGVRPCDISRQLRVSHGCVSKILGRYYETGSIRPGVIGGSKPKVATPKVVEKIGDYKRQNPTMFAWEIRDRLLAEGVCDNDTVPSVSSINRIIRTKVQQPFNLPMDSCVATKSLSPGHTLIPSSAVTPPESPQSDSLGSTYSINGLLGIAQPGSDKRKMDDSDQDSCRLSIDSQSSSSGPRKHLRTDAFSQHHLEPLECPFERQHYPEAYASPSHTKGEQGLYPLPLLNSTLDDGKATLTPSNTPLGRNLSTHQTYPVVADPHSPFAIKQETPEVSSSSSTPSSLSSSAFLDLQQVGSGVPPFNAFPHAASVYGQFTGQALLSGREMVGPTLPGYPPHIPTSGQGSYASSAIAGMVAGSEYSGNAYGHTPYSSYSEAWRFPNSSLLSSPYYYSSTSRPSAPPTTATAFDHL
Chain of Nonstructural protein 1 (Q194T2 whole entry): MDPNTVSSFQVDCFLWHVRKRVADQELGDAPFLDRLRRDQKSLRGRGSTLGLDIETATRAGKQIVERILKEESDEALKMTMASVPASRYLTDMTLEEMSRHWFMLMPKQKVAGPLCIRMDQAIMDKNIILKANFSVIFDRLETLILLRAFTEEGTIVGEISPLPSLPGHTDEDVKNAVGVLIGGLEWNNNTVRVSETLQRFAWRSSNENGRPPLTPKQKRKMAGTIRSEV

With `c1ccc(-c2nc(N3CCCCCC3)c3ccccc3n2)nc1` the EC50 [1] was 0.947 µM (active), the EC50 (BJ [2]) was 9.59 µM (active) and the EC50 (Beta-galactosidase) was > 40 µM (inactive). For the same compound, the EC50 (BJ [3]) was 25.7 µM (active), the EC50 [4] was 0.845 µM (active) and the IC50 [5] was > 40 µM (not active). The EC50 [6] was 2.24 µM (active), the EC50 (BJ [7]) was 50.7 µM (inconclusive) and the EC50 [8] was 21 µM (active). The EC50 (Streptococcus) was 1.19 µM (active), the IC50 (Nonstructural protein 1) was 23 µM (active) and the AC50 [9] was 36.2 µM (active). The EC50 (Protein RecA) was > 380 µM (inconclusive), the AC50 (INS1) was 1.8 µM (active) and the IC50 [10] was 4.71 µM (active).
In the case of `COc1ccc(OC)c(-c2csc(NC(=O)COC(=O)C3(C)CC3(Cl)Cl)n2)c1` (stereo unspecified), the IC50 [11] was > 69.5 µM (inactive) and the IC50 [12] was 13.1 µM (inactive).
For `Brc1ccc2nc(-c3ccc(CN4CCC(c5nc6ccccc6[nH]5)CC4)cc3)c(-c3ccccc3)nc2c1`, the AC50 (Paired box protein Pax-8) was 9.03 µM (active) and the AC50 [13] was 37.8 µM (active).
In the case of `Cc1ccc(OCCOCCOc2ccc(Br)cc2/C=N\NC(=O)c2ccncc2)cc1`, the IC50 [11] was > 69.5 µM (inactive) and the IC50 [12] was > 69.5 µM (inactive).
